# Measured values taken from article PMC12136991 (ACS chemical neuroscience, 2025).
# “And” between values parts separate entries of the source, which are not always exact repeats. Equal entries are not always repeated.
# How the values were obtained:
# [1] = biological target: human μ-opioid receptor (OPRM1) (Homo sapiens, UniProt P35372); test: cell-based; details: for Emax: OPRM1, read-out: MOR Agonist %Emax ± SEM
# Kinetic solubility assay = format: physicochemical; details: kinetic from dmso stock
# [2] = Multi-point microsome stability assay, human; format: in vitro ADME; details: both, human microsomal fractions, pH 7.4
# [3] = Multi-point microsome stability assay, mouse; format: in vitro ADME; details: male, CD-1, mouse, mouse microsomal fractions, pH 7.4
# [4] = Multi-point microsome stability assay, rat; format: in vitro ADME; details: male, Sprague Dawley, rat microsomal fractions, pH 7.4
# [5] = Multi-point cytosol stability assay, human; format: in vitro ADME; details: human cytosol fractions, pH 7.4
# [6] = Multi-point cytosol stability assay, mouse; format: in vitro ADME; details: mouse cytosol fractions, pH 7.4
# [7] = Multi-point cytosol stability assay, rat; format: in vitro ADME; details: rat cytosol fractions, pH 7.4
# [8] = biological target: T1, human δ-opioid receptor (OPRD1) (Homo sapiens, UniProt P41143); test: Forskolin-induced cAMP accumulation assay, DOR agonist mode; details: for Emax: read-out: DOR Agonist %Emax ± SEM
# T1 sequence (P41143 whole entry): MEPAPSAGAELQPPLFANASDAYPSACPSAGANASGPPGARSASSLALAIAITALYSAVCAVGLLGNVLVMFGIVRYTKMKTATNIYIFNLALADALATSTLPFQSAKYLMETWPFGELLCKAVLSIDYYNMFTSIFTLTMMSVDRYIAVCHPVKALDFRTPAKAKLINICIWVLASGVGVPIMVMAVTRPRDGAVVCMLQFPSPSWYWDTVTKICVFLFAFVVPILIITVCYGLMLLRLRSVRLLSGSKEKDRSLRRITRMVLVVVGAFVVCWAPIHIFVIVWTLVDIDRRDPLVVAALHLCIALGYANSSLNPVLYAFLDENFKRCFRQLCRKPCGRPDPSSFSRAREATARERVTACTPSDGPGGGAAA
# [9] = biological target: T2, human κ-opioid receptor (OPRK1) (Homo sapiens, UniProt P41145); test: Forskolin-induced cAMP accumulation assay, KOR agonist mode; details: for Emax: read-out: KOR Agonist %Emax ± SEM
# T2 sequence (P41145 whole entry): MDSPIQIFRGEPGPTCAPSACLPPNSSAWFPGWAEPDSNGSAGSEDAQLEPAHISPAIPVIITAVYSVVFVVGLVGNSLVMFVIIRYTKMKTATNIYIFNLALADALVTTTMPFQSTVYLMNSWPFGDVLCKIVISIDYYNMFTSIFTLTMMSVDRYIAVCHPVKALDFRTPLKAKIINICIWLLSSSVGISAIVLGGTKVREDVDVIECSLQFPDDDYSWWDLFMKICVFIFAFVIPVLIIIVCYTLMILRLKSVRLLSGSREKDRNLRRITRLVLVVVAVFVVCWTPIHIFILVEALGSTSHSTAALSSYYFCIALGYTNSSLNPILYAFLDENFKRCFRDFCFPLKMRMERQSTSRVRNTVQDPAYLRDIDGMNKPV
# [10] = biological target: T1, human δ-opioid receptor (OPRD1); test: Forskolin-induced cAMP accumulation assay, DOR antagonist mode; details: for DOR Antagonist %Imax ± SEM: versus EC50 of SNC80, normalized to naltrexone
# [11] = biological target: T2, human κ-opioid receptor (OPRK1); test: Forskolin-induced cAMP accumulation assay, KOR antagonist mode
# [12] = Parallel artificial membrane permeability assay; format: in vitro ADME; details: for PAMPA permeability Papp: stirring double-sink PAMPA
# [13] = biological target: T3, mouse mu opioid receptor (mMOR-CHO) (Mus musculus, UniProt P42866); test: Competition radioligand binding assay, [3H]naloxone, mMOR-CHO membranes
# T3 sequence (P42866 whole entry): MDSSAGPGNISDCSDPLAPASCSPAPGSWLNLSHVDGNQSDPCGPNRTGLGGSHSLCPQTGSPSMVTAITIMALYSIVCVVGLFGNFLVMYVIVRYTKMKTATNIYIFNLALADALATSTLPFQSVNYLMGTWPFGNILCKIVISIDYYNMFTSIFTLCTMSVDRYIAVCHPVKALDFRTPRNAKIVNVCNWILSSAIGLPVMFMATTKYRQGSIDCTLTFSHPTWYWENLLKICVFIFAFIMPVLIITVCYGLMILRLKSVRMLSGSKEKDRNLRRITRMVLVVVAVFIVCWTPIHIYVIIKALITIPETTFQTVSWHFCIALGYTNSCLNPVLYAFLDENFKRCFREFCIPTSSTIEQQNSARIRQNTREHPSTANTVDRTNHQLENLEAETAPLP
# [14] = biological target: T3, mouse mu opioid receptor (mMOR-CHO); test: [35S]GTPγS functional assay, mMOR-CHO membranes; format: biochemical
# human μ-opioid receptor (OPRM1), sequence (P35372 whole entry): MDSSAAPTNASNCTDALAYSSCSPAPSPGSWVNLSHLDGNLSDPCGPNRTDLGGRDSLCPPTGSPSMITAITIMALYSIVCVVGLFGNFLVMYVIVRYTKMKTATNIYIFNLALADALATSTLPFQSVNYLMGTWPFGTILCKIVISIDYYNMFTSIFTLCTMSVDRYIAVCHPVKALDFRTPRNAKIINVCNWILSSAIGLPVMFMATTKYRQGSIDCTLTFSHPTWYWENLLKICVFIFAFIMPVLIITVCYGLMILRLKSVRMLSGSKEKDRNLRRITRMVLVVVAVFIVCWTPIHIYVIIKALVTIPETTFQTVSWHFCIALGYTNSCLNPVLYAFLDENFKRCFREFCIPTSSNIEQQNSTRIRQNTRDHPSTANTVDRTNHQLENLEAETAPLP
Compound,EC50 [1],solubility kinetic (Kinetic solubility assay),half-life at 1 μM [2],half-life at 1 μM [3],half-life at 1 μM [4],half-life at 1 μM [5],half-life at 1 μM [6],half-life at 1 μM [7],EC50 [8],EC50 [9],IC50 [10],Emax [1],Emax [8],DOR Antagonist %Imax ± SEM [10],other results
"C=C[C@@H]1[C@H]2CCC[C@]1(c1cccc(O)c1)CCN2C [compound 10, 3-((1R,5S,9S)-2-Methyl-9-vinyl-2-azabicyclo[3.3.1]nonan-5-yl)phenol]",> 10000 nM,> 25 µg/mL,> 120 min,72.1 min,50.8 min,> 120 min,> 120 min,116 min,> 10000 nM,> 10000 nM,> 10000 nM,–,–,–,IC50 [11]: > 10000 nM
"C=C[C@H]1[C@H]2CCC[C@]1(c1cccc(NC(C)=O)c1)CCN2CCc1ccccc1 [compound 3, N-(3-((1R,5S,9R)-2-Phenethyl-9-vinyl-2-azabicyclo[3.3.1]nonan-5-yl)phenyl)acetamide]",2.73 nM,38 µg/mL,21.3 min,6.4 min,3 min,78 min,22.9 min,88.1 min,303 ± 40.7 nM,357 ± 109 nM,–,101%,56.6%,–,Papp ([12]; PAMPA): 731 ×10⁻⁶ cm/s; Emax [9]: 45.5%
"C=C[C@H]1[C@H]2CCC[C@]1(c1cccc(O)c1)CCN2CCc1ccc(O)cc1 [compound 20, 3-((1R,5S,9R)-2-(4-Hydroxyphenethyl)-9-vinyl-2-azabicyclo[3.3.1]nonan-5-yl)phenol]",4.16 nM,> 34 µg/mL,88.1 min,12.5 min,27.8 min,> 120 min,> 120 min,> 120 min,> 10000 nM,> 10000 nM,303 ± 29.2 nM,54.8%,–,163.6 ± 19.5%,–
"C=C[C@H]1C2CCCC1(c1cccc(O)c1)CCN2CCc1cccc(O)c1 (stereo in doubt) [compound 25, 3-((1S,5R,9R)-2-(3-Hydroxyphenethyl)-9-vinyl-2-azabicyclo[3.3.1]nonan-5-yl)phenol]",0.93 nM,–,27 min,4.02 min,9.65 min,> 120 min,> 120 min,> 120 min,> 10000 nM,> 10000 nM,107 ± 12.4 nM,89.7%,0%,138.7 ± 19.3%,–
"C=C[C@H]1[C@H]2CCC[C@]1(c1cccc(O)c1)CCN2CCc1cccc([N+](=O)[O-])c1 [compound 18, 3-((1R,5S,9R)-2-(3-Nitrophenethyl)-9-vinyl-2-azabicyclo[3.3.1]nonan-5-yl)phenol]",2.05 nM,> 39 µg/mL,10.6 min,3.54 min,1.98 min,> 120 min,> 120 min,> 120 min,> 10000 nM,> 10000 nM,52.5 ± 8.43 nM,85.8%,–,149.9 ± 13.2%,PAMPA permeability Papp [12]: >1000 10E-6 cm/s; Emax [9]: 0%
"C=C[C@H]1[C@H]2CCC[C@]1(c1cccc(O)c1)CCN2CCc1cccs1 [compound 16, 3-((1R,5S,9R)-2-(2-(Thiophen-2-yl)ethyl)-9-vinyl-2-azabicyclo[3.3.1]nonan-5-yl)phenol]",0.8 nM,> 35 µg/mL,8.21 min,1.66 min,1.04 min,> 120 min,> 120 min,> 120 min,13.2 ± 6.8 nM,–,59.8 ± 13 nM,101%,20%,87.1 ± 13.9%,–
"C=C[C@H]1C2CCCC1(c1cccc(O)c1)CCN2CCc1ccccc1[N+](=O)[O-] (stereo in doubt) [compound 24, 3-((1S,SR,9R)-2-(2-Nitrophenethyl)-9-vinyl-2-azabicyclo[3.3.1]nonan-5-yl)phenol]",2.55 nM,> 39 µg/mL,5.02 min,1.22 min,0.41 min,112 min,102 min,> 120 min,954 ± 502 nM,> 10000 nM,114 ± 11.7 nM,92.6%,35.9%,63.5 ± 12.0%,Emax [9]: 0%
"C=C[C@H]1[C@H]2CCC[C@]1(c1cccc(O)c1)CCN2CCc1ccc(F)cc1 [compound 19, 3-((1R,5S,9R)-2-(4-Fluorophenethyl)-9-vinyl-2-azabicyclo[3.3.1]nonan-5-yl)phenol]",3.33 nM,> 36 µg/mL,11.8 min,5.26 min,7.6 min,> 120 min,108 min,79.4 min,> 10000 nM,> 10000 nM,120 ± 18.5 nM,74.3%,–,153.1 ± 15.3%,–
"C=C[C@H]1[C@H]2CCC[C@]1(c1cccc(O)c1)CCN2CC1CC1 [compound 15, 3-((1R,5S,9R)-2-(Cyclopropylmethyl)-9-vinyl-2-azabicyclo[3.3.1]nonan-5-yl)phenol]",> 10000 nM,> 29 µg/mL,8.7 min,2.7 min,9.7 min,> 120 min,> 120 min,108 min,> 10000 nM,> 10000 nM,> 10000 nM,–,–,–,PAMPA permeability Papp [12]: >1000 10E-6 cm/s
"C=C[C@H]1[C@H]2CCC[C@]1(c1cccc(O)c1)CCN2CCc1ccc([N+](=O)[O-])cc1 [compound 17, 3-((1R,5S,9R)-2-(4-Nitrophenethyl)-9-vinyl-2-azabicyclo[3.3.1]nonan-5-yl)phenol]",> 10000 nM,10.6 µg/mL,16.8 min,9.31 min,12.9 min,> 120 min,105 min,> 120 min,–,> 10000 nM,105 ± 21.3 nM,–,–,137.2 ± 9.7%,"Ki [13]: 0.41 ± 0.05 nM; IC50 [14]: 16.2 ± 2.52 nM; GTPγS % Imax of (DAMGO) ([14]; MOR, maximal percent inhibition): 98.42% and 98.42 ± 4.24%"
"C=C[C@H]1[C@H]2CCC[C@]1(c1cccc(O)c1)CCN2C [compound 11, 3-((1R,5S,9R)-2-Methyl-9-vinyl-2-azabicyclo[3.3.1]nonan-5-yl)phenol]",> 10000 nM,> 25 µg/mL,68.9 min,21.8 min,62.6 min,97.9 min,112 min,> 120 min,> 10000 nM,> 10000 nM,> 10000 nM,–,–,–,IC50 [11]: > 10000 nM
